Test results taken from publication PMC6118387, “In silico drug absorption tract: An agent-based biomimetic model for human oral drug absorption” (PLoS ONE, 2018).
Several values for one entry are separate records, joined by “and”; a condition that tells them apart may be missing. Equal entries are not always repeated. Where two headings read alike, the source gives them in different places.

Legend:
[1] = midazolam, literature referent value, cited from earlier work
[2] = Clinical bioequivalence study: plasma concentrations (LC-MS-MS) and noncompartmental PK after oral tablet; type: in vivo, human
[3] = model drug parameter fixed to literature reported value; cited from earlier work
[4] = Referent clinical, midazolam 15 mg tablet oral, N = 15, mean ±1 SD
[5] = human, plasma, Referent clinical, midazolam 15 mg tablet oral, N = 15, mean ±1 SD

Cc1ncc2n1-c1ccc(Cl)cc1C(c1ccccc1F)=NC2 [Midazolam, midazolam]
F (absolute oral bioavailability) [1]: 31–72% | Fa × Fg [1]: 48–76% | Fh [1]: 36–57% | Fa × Fg ([1]; listed as midazolam): 48–76% | Fh ([1]; listed as midazolam): 36–57% | CL/F [2, 4]: 57.72 ± 19.31 L/h | V/F [2, 4]: 205.20 ± 56.75 L | Tmax ([2]; Referent clinical, midazolam 15 mg tablet oral, N = 15, median): 30 min | Cmax ([2]; human, plasma, oral, 15 mg, midazolam, peak of the mean clinical concentration-time profile over 24 hours): 90.2 ng/mL | concentration at 0 h ([2]; human, plasma, po, 15 mg, midazolam 15 mg oral, plasma, mean (±1 SD) N=15, read-out: Concentration, Referent): 0 ng/mL | concentration at 0 h ([2]; human, plasma, po, 15 mg, midazolam 15 mg oral, plasma, one value per subject (columns A1-A8, B1-B7), read-out: Concentration, individual subjects): 0 ng/mL | concentration at 0.25 h ([2]; human, plasma, po, 15 mg, midazolam 15 mg oral, plasma, 0.25 h, mean (±1 SD) N=15, read-out: Concentration, Referent): 12.2 ± 14.4 ng/mL | concentration at 0.5 h ([2]; human, plasma, po, 15 mg, midazolam 15 mg oral, plasma, 0.5 h, mean (±1 SD) N=15, read-out: Concentration, Referent): 90.2 ± 47.6 ng/mL | concentration at 1 h ([2]; human, plasma, po, 15 mg, midazolam 15 mg oral, plasma, 1 h, mean (±1 SD) N=15, read-out: Concentration, Referent): 56.6 ± 22.6 ng/mL | concentration at 1.5 h ([2]; human, plasma, po, 15 mg, midazolam 15 mg oral, plasma, 1.5 h, mean (±1 SD) N=15, read-out: Concentration, Referent): 46.8 ± 12.5 ng/mL | concentration at 2 h ([2]; human, plasma, po, 15 mg, midazolam 15 mg oral, plasma, 2 h, mean (±1 SD) N=15, read-out: Concentration, Referent): 47.8 ± 19.1 ng/mL | concentration at 2.5 h ([2]; human, plasma, po, 15 mg, midazolam 15 mg oral, plasma, 2.5 h, mean (±1 SD) N=15, read-out: Concentration, Referent): 41.1 ± 15.1 ng/mL | concentration at 3 h ([2]; human, plasma, po, 15 mg, midazolam 15 mg oral, plasma, 3 h, mean (±1 SD) N=15, read-out: Concentration, Referent): 40.3 ± 26.1 ng/mL | concentration at 4 h ([2]; human, plasma, po, 15 mg, midazolam 15 mg oral, plasma, 4 h, mean (±1 SD) N=15, read-out: Concentration, Referent): 32.4 ± 21.1 ng/mL | concentration at 6 h ([2]; human, plasma, po, 15 mg, midazolam 15 mg oral, plasma, 6 h, mean (±1 SD) N=15, read-out: Concentration, Referent): 15.6 ± 9.4 ng/mL | concentration at 8 h ([2]; human, plasma, po, 15 mg, midazolam 15 mg oral, plasma, 8 h, mean (±1 SD) N=15, read-out: Concentration, Referent): 9.33 ± 5.73 ng/mL | concentration at 10 h ([2]; human, plasma, po, 15 mg, midazolam 15 mg oral, plasma, 10 h, mean (±1 SD) N=15, read-out: Concentration, Referent): 5.75 ± 4.06 ng/mL | concentration at 12 h ([2]; human, plasma, po, 15 mg, midazolam 15 mg oral, plasma, 12 h, mean (±1 SD) N=15, read-out: Concentration, Referent): 3.48 ± 2.75 ng/mL | concentration at 24 h ([2]; human, plasma, po, 15 mg, midazolam 15 mg oral, plasma, 24 h, mean (±1 SD) N=15, read-out: Concentration, Referent): 0.41 ± 0.63 ng/mL | AUC [2, 5]: 296 ± 126 ng·h/mL | Cmax [2, 5]: 101 ± 33 ng/mL | k el [2, 5]: 7.78e-05 s⁻¹ | Concentration, individual subjects ([2]; midazolam 15 mg oral, plasma, 2.5 h, one value per subject (columns A1-A8, B1-B7)): 54.91 ng/mL and 40.38 ng/mL and 25.80 ng/mL and 40.78 ng/mL and 31.74 ng/mL and 48.76 ng/mL and 34.21 ng/mL and 20.63 ng/mL and 33.92 ng/mL and 30.24 ng/mL and 57.61 ng/mL and 24.84 ng/mL and 35.19 ng/mL and 58.33 ng/mL and 78.77 ng/mL | Concentration, individual subjects ([2]; midazolam 15 mg oral, plasma, 3 h, one value per subject (columns A1-A8, B1-B7)): 52.06 ng/mL and 27.73 ng/mL and 21.71 ng/mL and 25.74 ng/mL and 36.83 ng/mL and 69.41 ng/mL and 35.36 ng/mL and 17.14 ng/mL and 26.32 ng/mL and 22.37 ng/mL and 41.78 ng/mL and 21.67 ng/mL and 38.29 ng/mL and 47.32 ng/mL and 120.12 ng/mL | Concentration, individual subjects ([2]; midazolam 15 mg oral, plasma, 4 h, one value per subject (columns A1-A8, B1-B7)): 42.50 ng/mL and 20.80 ng/mL and 19.34 ng/mL and 20.60 ng/mL and 28.96 ng/mL and 77.03 ng/mL and 23.38 ng/mL and 14.36 ng/mL and 20.65 ng/mL and 15.37 ng/mL and 24.77 ng/mL and 22.90 ng/mL and 30.75 ng/mL and 41.37 ng/mL and 83.44 ng/mL | Concentration, individual subjects ([2]; midazolam 15 mg oral, plasma, 6 h, one value per subject (columns A1-A8, B1-B7)): 24.75 ng/mL and 8.47 ng/mL and 11.09 ng/mL and 8.46 ng/mL and 15.04 ng/mL and 29.67 ng/mL and 12.43 ng/mL and 6.69 ng/mL and 9.53 ng/mL and 10.09 ng/mL and 12.41 ng/mL and 7.25 ng/mL and 15.05 ng/mL and 24.91 ng/mL and 38.15 ng/mL | Concentration, individual subjects ([2]; midazolam 15 mg oral, plasma, 8 h, one value per subject (columns A1-A8, B1-B7)): 14.78 ng/mL and 4.58 ng/mL and 5.87 ng/mL and 3.98 ng/mL and 6.08 ng/mL and 15.63 ng/mL and 6.16 ng/mL and 4.20 ng/mL and 7.07 ng/mL and 8.11 ng/mL and 11.11 ng/mL and 3.58 ng/mL and 8.96 ng/mL and 17.42 ng/mL and 22.42 ng/mL | Concentration, individual subjects ([2]; midazolam 15 mg oral, plasma, 10 h, one value per subject (columns A1-A8, B1-B7)): 9.22 ng/mL and 2.05 ng/mL and 4.27 ng/mL and 2.24 ng/mL and 3.91 ng/mL and 8.93 ng/mL and 3.37 ng/mL and 2.53 ng/mL and 5.05 ng/mL and 3.40 ng/mL and 6.04 ng/mL and 1.38 ng/mL and 5.79 ng/mL and 13.69 ng/mL and 14.29 ng/mL | Concentration, individual subjects ([2]; midazolam 15 mg oral, plasma, 12 h, one value per subject (columns A1-A8, B1-B7)): 5.37 ng/mL and 1.26 ng/mL and 2.53 ng/mL and 1.54 ng/mL | logP, In silico Logarithm of partition coefficient [3]: 3.6
